Measured values reported in patent publication US9708368B2, “Linear peptide antibiotics” (priority 2012, dated 2017).
≈ marks a conversion by molar mass, not a printed value. Numbered stars: 1 amine (or outer) side, 2 acyl side, 3 side chain; on linkers, the order of the positions; unused ones are H or OH. Square brackets hold non-standard residues; d marks the D form. Peptide text beside a SMILES is read from it. * marks the point of attachment. ξ: configuration not given here. boroAla((+)-pinanediol) = C[C@H](N*)B1O[C@@H]2C[C@@H]3C[C@@H](C3(C)C)[C@]2(C)O1; Biphenylcarbonyl(4'-Bu) = CCCCc1ccc(-c2ccc(C(=O)*)cc2)cc1; X1 = C[C@H](N*)B1OC2C[C@@H]3C[C@@H](C3(C)C)[C@]2(C)O1; Benzoyl(4-(4-Cl-Ph)) = O=C(c1ccc(-c2ccc(Cl)cc2)cc1)*; ξPro(4S-NH2) = O=C(C1C[C@H](N[*:3])CN1[*:1])[*:2]; ξ3Amino2oxobutanoyl = CC(N[*:1])C(=O)C(=O)[*:2]; Benzoyl(4-hexyl) = CCCCCCc1ccc(C(=O)*)cc1; NMeThr(3ξ) = CN[C@H](C(=O)O)C(C)O; X9 = COC(=O)CN1C[C@@H](N*)C1=O; Tle = CC(C)(C)[C@H](N)C(=O)O; Lauroyl = CCCCCCCCCCCC(=O)*; boroAla = C[C@H](N*)B(O)O; Orn = NCCC[C@H](N)C(=O)O; Dab = NCC[C@H](N)C(=O)O; Abu = CC[C@H](N)C(=O)O; Ac3c = NC1(C(=O)O)CC1; boroGly = OB(O)CN*; βAla = NCCC(=O)O

Key:
S. aureus SPase = S. aureus SPase (Staphylococcus aureus, UniProt P0A070); assay: biochemical
E. coli SPase = E. coli SPase (Escherichia coli, UniProt P00803); assay: Biochemical SPase activity assay (fluorogenic peptide substrate), E. coli enzyme
[1] = tested on: methicillin resistant Staphylococcus aureus (MRSA) strain USA300 (NRS384); conditions: Method B, 35° C., 22 hours
[2] = tested on: Escherichia coli strain MC4100 IMP-4213, which harbors an LptD mutation; conditions: Method B; E. coli MC4100 IMP-4213 (LptD mutation); 35° C., 22 hours
Description: In vitro antimicrobial activity of each compound was determined by measuring minimal inhibitor concentrations (MICs) using the broth micro-dilution technique as approved by the Clinical and Laboratory Standards Institute (CLSI). […] Bacterial inocula were prepared by scraping cells into 1 mL of testing media (cation adjusted Mueller Hinton Broth supplemented with 0.002% v/v Tween-80) and diluting to a final OD600 nm of 0.01.
Test compounds were prepared in DMSO at a concentration of 10 mg/ml. […] Bacterial inocula were added to the two fold serial dilutions of test compounds to a final density of OD OD600 nm of 0.0005 and incubated stationarily at 35° C. for 22 hours, after which the plates were examined visually.

| SMILES | IC50 (S. aureus SPase) [nM] | IC50 (E. coli SPase) [nM] | MIC (μg/mL) S. aureus [1] [µg/mL] | MIC (μg/mL) E. coli [2] [µg/mL] |
| --- | --- | --- | --- | --- |
| CCCCCCc1ccc(C(=O)N[C@H](CO)C(=O)N[C@H](C)C(=O)NCC(=O)N(C)[C@H](C(=O)N[C@@H](C)C(=O)N[C@@H](CC(N)=O)C(=O)NC(C)C(=O)C(=O)NC)C(C)O)cc1 (stereo partly drawn) [Compound 113] ({Benzoyl(4-hexyl)}-[dS][dA]G[NMeThr(3ξ)]AN[ξ3Amino2oxobutanoyl]-NHMe) | 470 | – | – | – |
| CCCCCCc1ccc(C(=O)N[C@H](CO)C(=O)N[C@H](C)C(=O)NCC(=O)N(C)[C@H](C(=O)N[C@@H](C)C(=O)N[C@@H](CC(C)C)C(=O)NC(C)C(=O)C(=O)NC)C(C)O)cc1 (stereo partly drawn) [Compound 114] ({Benzoyl(4-hexyl)}-[dS][dA]G[NMeThr(3ξ)]AL[ξ3Amino2oxobutanoyl]-NHMe) | 390 | – | – | – |
| CCCCCCc1ccc(C(=O)N[C@H](CO)C(=O)N[C@H](C)C(=O)NCC(=O)N(C)[C@H](C(=O)N[C@@H](C)C(=O)N[C@@H](CC(C)C)C(=O)NCB(O)O)C(C)O)cc1 (stereo partly drawn) [Compound 125] ({Benzoyl(4-hexyl)}-[dS][dA]G[NMeThr(3ξ)]AL-boroGly) | 55 | 730 | – | – |
| CCCCc1ccc(-c2ccc(C(=O)N[C@@H](CCCCN)C(=O)N[C@H](C(=O)N[C@@H](C)C(=O)N[C@@H](CC(N)=O)C(=O)N[C@@H](C)B3O[C@@H]4C[C@@H]5C[C@@H](C5(C)C)[C@]4(C)O3)[C@@H](C)O)cc2)cc1 [Compound 129] ({Biphenylcarbonyl(4'-Bu)}-KTAN-{boroAla((+)-pinanediol)}) | 140 | 14 | 0.74 (≈ 0.847 µM) | 0.91 (≈ 1.04 µM) |
| CCCCc1ccc(-c2ccc(C(=O)N[C@@H](CCCCN)C(=O)N[C@H](C(=O)N[C@@H](C)C(=O)N[C@@H](CC(N)=O)C(=O)N[C@@H](C)B(O)O)[C@@H](C)O)cc2)cc1 [Compound 131] ({Biphenylcarbonyl(4'-Bu)}-KTAN-boroAla) | 98 | 19 | 0.45 (≈ 0.608 µM) | 0.44 (≈ 0.595 µM) |
| CCCCc1ccc(-c2ccc(C(=O)N[C@@H](CCCCN)C(=O)N[C@H](C(=O)N[C@@H](C)C(=O)N[C@@H](CCCCN)C(=O)N[C@@H](C)B3OC4C[C@@H]5C[C@@H](C5(C)C)[C@]4(C)O3)[C@@H](C)O)cc2)cc1 (stereo partly drawn) [Compound 132] ({Biphenylcarbonyl(4'-Bu)}-KTAK-X1) | 77 | 24 | 0.21 (≈ 0.236 µM) | 1 (≈ 1.13 µM) |
| CCCCc1ccc(-c2ccc(C(=O)N[C@@H](CCCCN)C(=O)N3CCC[C@H]3C(=O)N[C@@H](C)C(=O)N[C@@H](CC(N)=O)C(=O)N[C@@H](C)B3O[C@@H]4C[C@@H]5C[C@@H](C5(C)C)[C@]4(C)O3)cc2)cc1 [Compound 133] ({Biphenylcarbonyl(4'-Bu)}-KPAN-{boroAla((+)-pinanediol)}) | 170 | 15 | 1.4 (≈ 1.61 µM) | 0.79 (≈ 0.908 µM) |
| CCCCc1ccc(-c2ccc(C(=O)N[C@@H](CCCCN)C(=O)N[C@@H](CCCCN)C(=O)N[C@@H](C)C(=O)N[C@@H](CC(N)=O)C(=O)N[C@@H](C)B3O[C@@H]4C[C@@H]5C[C@@H](C5(C)C)[C@]4(C)O3)cc2)cc1 [Compound 134] ({Biphenylcarbonyl(4'-Bu)}-KKAN-{boroAla((+)-pinanediol)}) | 120 | 8.7 | 0.87 (≈ 0.966 µM) | 1.4 (≈ 1.55 µM) |
| CCCCc1ccc(-c2ccc(C(=O)N[C@@H](CCCCN)C(=O)N[C@@H](Cc3c[nH]cn3)C(=O)N[C@@H](C)C(=O)N[C@@H](CC(N)=O)C(=O)N[C@@H](C)B(O)O)cc2)cc1 [Compound 136] ({Biphenylcarbonyl(4'-Bu)}-KHAN-boroAla) | 39 | 14 | 1.4 (≈ 1.8 µM) | 1 (≈ 1.29 µM) |
| CCCCc1ccc(-c2ccc(C(=O)N[C@@H](CCCCN)C(=O)NC3(C(=O)N[C@@H](C)C(=O)N[C@@H](CCCCN)C(=O)N[C@@H](C)B4OC5C[C@@H]6C[C@@H](C6(C)C)[C@]5(C)O4)CC3)cc2)cc1 (stereo partly drawn) [Compound 137] ({Biphenylcarbonyl(4'-Bu)}-K[Ac3c]AK-X1) | 26000 | 1200 | 16 (≈ 18.4 µM) | 23 (≈ 26.4 µM) |
| CCCCc1ccc(-c2ccc(C(=O)N[C@@H](Cc3c[nH]c4ccccc34)C(=O)N[C@H](C(=O)N[C@@H](C)C(=O)N[C@@H](CCCCN)C(=O)N[C@@H](C)B3OC4C[C@@H]5C[C@@H](C5(C)C)[C@]4(C)O3)[C@@H](C)O)cc2)cc1 (stereo partly drawn) [Compound 138] ({Biphenylcarbonyl(4'-Bu)}-WTAK-X1) | 1100 | 1000 | 5 (≈ 5.29 µM) | >64 |
| CCCCc1ccc(-c2ccc(C(=O)N3C[C@@H](N)CC3C(=O)N[C@H](C(=O)N[C@@H](C)C(=O)N[C@@H](CC(N)=O)C(=O)N[C@@H](C)B3OC4C[C@@H]5C[C@@H](C5(C)C)[C@]4(C)O3)[C@@H](C)O)cc2)cc1 (stereo partly drawn) [Compound 139] ({Biphenylcarbonyl(4'-Bu)}-[ξPro(4S-NH2)]TAN-X1) | 8.5 | 3.4 | 1 (≈ 1.17 µM) | 2 (≈ 2.33 µM) |
| CCCCc1ccc(-c2ccc(C(=O)N[C@@H](CCCCN)C(=O)N[C@H](C(=O)N[C@@H](C)C(=O)N[C@@H](CCN)C(=O)N[C@@H](C)B3O[C@@H]4C[C@@H]5C[C@@H](C5(C)C)[C@]4(C)O3)[C@@H](C)O)cc2)cc1 [Compound 140] ({Biphenylcarbonyl(4'-Bu)}-KTA[Dab]-{boroAla((+)-pinanediol)}) | 52 | 50 | 1 (≈ 1.16 µM) | 8 (≈ 9.3 µM) |
| CCCCCCCCCCCC(=O)N[C@@H](CCCCN)C(=O)N[C@H](C(=O)N[C@@H](C)C(=O)N[C@@H](CCCCN)C(=O)N[C@@H](C)B1OC2C[C@@H]3C[C@@H](C3(C)C)[C@]2(C)O1)[C@@H](C)O (stereo partly drawn) [Compound 141] (Lauroyl-KTAK-X1) | 23 | 33 | 0.79 (≈ 0.947 µM) | 5.7 (≈ 6.83 µM) |
| CCCCc1ccc(-c2ccc(C(=O)N[C@@H](CCCN)C(=O)N[C@H](C(=O)N[C@@H](C)C(=O)N[C@@H](CCCCN)C(=O)N[C@@H](C)B3OC4C[C@@H]5C[C@@H](C5(C)C)[C@]4(C)O3)[C@@H](C)O)cc2)cc1 (stereo partly drawn) [Compound 142] ({Biphenylcarbonyl(4'-Bu)}-[Orn]TAK-X1) | 34 | 15 | 0.22 (≈ 0.252 µM) | 0.5 (≈ 0.572 µM) |
| CCCCc1ccc(-c2ccc(C(=O)N[C@@H](Cc3c[nH]cn3)C(=O)N[C@H](C(=O)N[C@@H](C)C(=O)N[C@@H](CCCCN)C(=O)N[C@@H](C)B3OC4C[C@@H]5C[C@@H](C5(C)C)[C@]4(C)O3)[C@@H](C)O)cc2)cc1 (stereo partly drawn) [Compound 143] ({Biphenylcarbonyl(4'-Bu)}-HTAK-X1) | 180 | 250 | 0.35 (≈ 0.39 µM) | 5.7 (≈ 6.35 µM) |
| CCCCc1ccc(-c2ccc(C(=O)N[C@@H](CCCCN)C(=O)N[C@H](C(=O)N[C@@H](CC)C(=O)N[C@@H](CC(N)=O)C(=O)N[C@@H](C)B3O[C@@H]4C[C@@H]5C[C@@H](C5(C)C)[C@]4(C)O3)[C@@H](C)O)cc2)cc1 [Compound 144] ({Biphenylcarbonyl(4'-Bu)}-KT[Abu]N-{boroAla((+)-pinanediol)}) | 36 | 18 | 0.25 (≈ 0.282 µM) | 0.25 (≈ 0.282 µM) |
| CC(C)C[C@H](NC(=O)[C@H](C)NC(=O)[C@H](CCCCN)NC(=O)[C@H](CCCCN)NC(=O)c1ccc(-c2ccc(Cl)cc2)cc1)C(=O)N[C@@H](C)B1OC2C[C@@H]3C[C@@H](C3(C)C)[C@]2(C)O1 (stereo partly drawn) [Compound 145] ({Benzoyl(4-(4-Cl-Ph))}-KKAL-X1) | 240 | 39 | 3.2 (≈ 3.64 µM) | 5 (≈ 5.69 µM) |
| CC(C)C[C@H](NC(=O)[C@H](C)NC(=O)[C@H](CCCCN)NC(=O)[C@H](CCCCN)NC(=O)c1ccc(-c2ccc(Cl)cc2)cc1)C(=O)N[C@@H](C)B(O)O [Compound 155] ({Benzoyl(4-(4-Cl-Ph))}-KKAL-boroAla) | 250 | 39 | – | – |
| CCCCc1ccc(-c2ccc(C(=O)NCCC(=O)N[C@@H](CCCCN)C(=O)N[C@H](C(=O)N[C@@H](C)C(=O)N[C@H](C(=O)N[C@@H](C)B3OC4C[C@@H]5C[C@@H](C5(C)C)[C@]4(C)O3)C(C)(C)C)[C@@H](C)O)cc2)cc1 (stereo partly drawn) [Compound 211] ({Biphenylcarbonyl(4'-Bu)-βAla}-KTA[Tle]-X1) | 36 | – | 0.71 (≈ 0.752 µM) | 32 (≈ 33.9 µM) |
| CCCCc1ccc(-c2ccc(C(=O)N[C@@H](CCCCN)C(=O)N3CCC[C@H]3C(=O)N[C@@H](C)C(=O)N[C@@H](CCCCN)C(=O)N[C@@H]3CN(CC(=O)OC)C3=O)cc2)cc1 [Compound 258] ({Biphenylcarbonyl(4'-Bu)}-KPAK-X9) | 50000 | – | >64 | 23 (≈ 28.1 µM) |
| CCCCc1ccc(-c2ccc(CN[C@@H](CCN)C(=O)N[C@H](C(=O)N[C@@H](C)C(=O)N[C@@H](CCCCN)C(=O)N[C@@H](C)B(O)O)[C@@H](C)O)cc2)cc1 [Compound 267] | 33 | 11 | – | – |
| CCCCc1ccc(-c2ccc(C(=O)N[C@@H](CCN)C(=O)N[C@H](C(=O)N[C@@H](C)C(=O)N[C@@H](CCCCN)C(=O)N[C@@H](C)B(O)O)[C@@H](C)O)cc2)cc1 [Compound 267] ({Biphenylcarbonyl(4'-Bu)}-[Dab]TAK-boroAla) | – | – | 0.13 (≈ 0.179 µM) | – |
